Mutagenic call data for five compounds are collected here from PubChem BioAssay AID1259407 (Chemical Carcinogenesis Research Information System (CCRIS), 2018).

This data set concerns CCRIS mutagenicity, Ames/micronucleus/aberration tests. Put plainly: CCRIS mutagenicity studies.

“Also recorded” adds a separate entry of the source. Active and inactive are the calls of the source. How the calls were made is not given here.

`Nc1cccc2c1-c1cccc3cccc-2c13`: the mutagenic call (Test System: AMES SALMONELLA TYPHIMURIUM, Strain/Indicator: TA98, Metabolic Activation: RAT, LIVER, S-9, AROCLOR 1254 (2 OR 4%), Method: STANDARD PLATE) is “active; positive”; the mutagenic call (Test System: AMES SALMONELLA TYPHIMURIUM, Strain/Indicator: TA100, Metabolic Activation: RAT, LIVER, S-9, AROCLOR 1254 (2%), Method: STANDARD PLATE) was “active; positive”; the mutagenic call (Test System: AMES SALMONELLA TYPHIMURIUM, Strain/Indicator: TA1535, Metabolic Activation: RAT, LIVER, S-9, AROCLOR 1254 (2%), Method: STANDARD PLATE) is “inactive; negative”; the mutagenic call (Test System: AMES SALMONELLA TYPHIMURIUM, Strain/Indicator: TA1537, Metabolic Activation: RAT, LIVER, S-9, AROCLOR 1254 (2%), Method: STANDARD PLATE) was “active; positive”.

`O=[N+]([O-])c1cc2ccc3cccc4ccc(c1)c2c34`: the mutagenic call reads like this: (Test System: AMES SALMONELLA TYPHIMURIUM, Strain/Indicator: TA96, Metabolic Activation: NONE, Method: STANDARD PLATE) “active; positive”; (Test System: AMES SALMONELLA TYPHIMURIUM, Strain/Indicator: TA97, Metabolic Activation: NONE, Method: STANDARD PLATE) “active; positive”; (Test System: AMES SALMONELLA TYPHIMURIUM, Strain/Indicator: TA98(1,8-DNP6), Metabolic Activation: NONE) “active; positive”; (Test System: AMES SALMONELLA TYPHIMURIUM, Strain/Indicator: TA98(1,8-DNP6), Metabolic Activation: NONE, Method: STANDARD PLATE) “active; positive”; (Test System: AMES SALMONELLA TYPHIMURIUM, Strain/Indicator: TA98(1,8-DNP6), Metabolic Activation: RAT, LIVER, S-9, AROCLOR 1254) “inactive; negative”; (Test System: AMES SALMONELLA TYPHIMURIUM, Strain/Indicator: TA98(NR), Metabolic Activation: NONE) “active; positive”. For the same compound, the mutagenic call is “active; positive” (Test System: AMES SALMONELLA TYPHIMURIUM, Strain/Indicator: TA98(NR), Metabolic Activation: NONE, Method: STANDARD PLATE); “active; positive” (Test System: AMES SALMONELLA TYPHIMURIUM, Strain/Indicator: TA98(NR), Metabolic Activation: RAT, LIVER, S-9, AROCLOR 1254); “active; positive” (Test System: AMES SALMONELLA TYPHIMURIUM, Strain/Indicator: TA98, Metabolic Activation: NONE); “active; positive” (Test System: AMES SALMONELLA TYPHIMURIUM, Strain/Indicator: TA98, Metabolic Activation: NONE, Method: PREINCUBATION); “active; positive” (Test System: AMES SALMONELLA TYPHIMURIUM, Strain/Indicator: TA98, Metabolic Activation: NONE, Method: STANDARD PLATE); “active; positive” (Test System: AMES SALMONELLA TYPHIMURIUM, Strain/Indicator: TA98, Metabolic Activation: RAT, LIVER, S-9, AROCLOR 1254). Moreover, the mutagenic call is “inactive; negative” (Test System: AMES SALMONELLA TYPHIMURIUM, Strain/Indicator: TA98, Metabolic Activation: RAT, LIVER, S-9, PCB (10%), Method: PREINCUBATION); “inactive; negative” (Test System: AMES SALMONELLA TYPHIMURIUM, Strain/Indicator: TA100(NR), Metabolic Activation: NONE); “inactive; negative” (Test System: AMES SALMONELLA TYPHIMURIUM, Strain/Indicator: TA100(NR), Metabolic Activation: NONE, Method: STANDARD PLATE); “active; positive” (Test System: AMES SALMONELLA TYPHIMURIUM, Strain/Indicator: TA100(NR), Metabolic Activation: RAT, LIVER, S-9, AROCLOR 1254); “active; positive” (Test System: AMES SALMONELLA TYPHIMURIUM, Strain/Indicator: TA100, Metabolic Activation: NONE); “active; positive” (Test System: AMES SALMONELLA TYPHIMURIUM, Strain/Indicator: TA100, Metabolic Activation: NONE, Method: STANDARD PLATE). The mutagenic call is “active; positive” (Test System: AMES SALMONELLA TYPHIMURIUM, Strain/Indicator: TA100, Metabolic Activation: RAT, LIVER, S-9, AROCLOR 1254); “inactive; negative” (Test System: AMES SALMONELLA TYPHIMURIUM, Strain/Indicator: TA102, Metabolic Activation: NONE, Method: STANDARD PLATE); “active; positive” (Test System: AMES SALMONELLA TYPHIMURIUM, Strain/Indicator: TA104, Metabolic Activation: NONE); “active; positive” (Test System: AMES SALMONELLA TYPHIMURIUM, Strain/Indicator: TA104, Metabolic Activation: NONE, Method: STANDARD PLATE); “active; positive” (Test System: AMES SALMONELLA TYPHIMURIUM, Strain/Indicator: TA104, Metabolic Activation: RAT, LIVER, S-9, AROCLOR 1254); “inactive; negative” (Test System: AMES SALMONELLA TYPHIMURIUM, Strain/Indicator: TA1535, Metabolic Activation: NONE, Method: STANDARD PLATE). The mutagenic call runs as follows: (Test System: AMES SALMONELLA TYPHIMURIUM, Strain/Indicator: TA1538, Metabolic Activation: NONE, Method: STANDARD PLATE) “active; positive”; (Test System: AMES SALMONELLA TYPHIMURIUM, Strain/Indicator: TA7001, Metabolic Activation: NONE, Method: PREINCUBATION) “active; positive”; (Test System: AMES SALMONELLA TYPHIMURIUM, Strain/Indicator: TA7002, Metabolic Activation: NONE, Method: PREINCUBATION) “active; positive”; (Test System: AMES SALMONELLA TYPHIMURIUM, Strain/Indicator: TA7003, Metabolic Activation: NONE, Method: PREINCUBATION) “active; positive”; (Test System: AMES SALMONELLA TYPHIMURIUM, Strain/Indicator: TA7004, Metabolic Activation: NONE, Method: PREINCUBATION) “active; positive”; (Test System: AMES SALMONELLA TYPHIMURIUM, Strain/Indicator: TA7005, Metabolic Activation: NONE, Method: PREINCUBATION) “active; positive”. Moreover, the mutagenic call (Test System: AMES SALMONELLA TYPHIMURIUM, Strain/Indicator: TA7006, Metabolic Activation: NONE, Method: PREINCUBATION) was “active; positive”.

`CC(=O)Nc1ccc2c(c1OC(C)=O)Cc1ccccc1-2`: under “Test System: AMES SALMONELLA TYPHIMURIUM, Strain/Indicator: TA98, Metabolic Activation: RAT, LIVER, S-9, AROCLOR 1254, Method: STANDARD PLATE”, the mutagenic call was “inactive; negative”.

Take `CNC(C)Cc1ccc2c(c1)OCO2` (stereo not drawn): the mutagenic call is “inactive; negative. n-nitroso-3,4-methylenedioxymethamphetamine (500-900 ug/ml), expected” (End Point: In vitro micronucleus, Test System: Chinese hamster lung fibroblast, Metabolic Activation: Hamster, Liver, S-9, Phenobarbital sodium and 5,6-benzoflavone); “inactive; negative. n-nitroso-3,4-methylenedioxymethamphetamine (200-600 ug/ml), expected; also recorded: inactive; negative. n-nitroso-3,4-methylenedioxymethamphetamine (50-300 ug/ml), expected t” (End Point: In vitro micronucleus, Test System: Chinese hamster lung fibroblast, Metabolic Activation: None); “inactive; negative. n-nitroso-3,4-methylenedioxymethamphetamine (500-900 ug/ml), expected” (End Point: In vitro micronucleus, Test System: Chinese hamster lung fibroblast, Metabolic Activation: Rat, Liver, S-9, Phenobarbital sodium and 5,6-benzoflavone).

Regarding `CCCN(N)CCC`, the mutagenic call is “active; positive” (Test System: AMES SALMONELLA TYPHIMURIUM, Strain/Indicator: TA100, Metabolic Activation: NONE, Method: PREINCUBATION (11 HR GROWTH PERIOD FOR BACTERIA)); “inactive; negative” (Test System: AMES SALMONELLA TYPHIMURIUM, Strain/Indicator: TA100, Metabolic Activation: RAT, LIVER, S-9, PCB, Method: PREINCUBATION (11 HR GROWTH PERIOD FOR BACTERIA)); “active; positive” (Test System: AMES SALMONELLA TYPHIMURIUM, Strain/Indicator: TA102, Metabolic Activation: NONE, Method: PREINCUBATION (5 OR 7 HR GROWTH PERIOD FOR BACTERIA)); “inactive; negative” (Test System: AMES SALMONELLA TYPHIMURIUM, Strain/Indicator: TA102, Metabolic Activation: RAT, LIVER, S-9, PCB, Method: PREINCUBATION (5 OR 7 HR GROWTH PERIOD FOR BACTERIA)).
